Assay results reported in article PMC6315349 (2018).

Columns and labels:
Assay in all cases: fluorescence turn-on
[1] = tested on: RNA half adder + AND_DNA inhibitor + XOR_DNA inhibitor (0-0) (DNA:RNA, aptamer) GGUGCCCGCUGACCGGAGACGGUCAAAUAGAGCACAGGAUGGUAACGAAUGACCAGCCCGAGGUCGCGACCUUCUUUUCCCUCGCGACUCGAAAUGUUUCUUUUCGAGGUCGCCCCGUAUCUGUCGAGUAGAGUGUGGGCUCGCACGCGGCUGCC/GGCGGCTGCCGCGCAGAGACGGUCGGGUCCAGAUAUUGGAUCUUUCGCCUUUUCGCGAUACGGGCCAACGAUGGGUUUUGAAGGUCGCGACAAGGGCUGGTCCGACAUCCCACACAAATAGAGTGTGGGCCGAGCAGCGGCACC/GGUGCCCGCUGACCGGAGACGGUCAAAUAGAGCACAGGAUGGUAACGAAUGACCAGCCCGAGGGCGACCUCGUUUUGUACCAGCAUCCUCUUCAUAAGUUUUGGCGAAAGAUCCCGUAUCUGUCGAGUAGAGUGUGGGCUCGCACGCGGCUGCC/GGCGGCUGCCGCGCAGAGACGGUCGGGUCCAGAUAUUGGGCGACCUCGUUUUCCGGGAUAUGGUCUCGGCCAACUUUUCGAGGUCGCCCAAGGGCUGGUCCGACAUCCCACACAAAUAGAGUGUGGGCCGAGCAGCGGCAGC/GGAUGCUGGUACUUUUGUUGGCCGAGACCAUAUCCCGGUUUUGAAACAUUUCGAGUCGCGAGGGUUUUCCCAUCGUUGGCCCGUAUCGCGUUUUCUUAUGAAGA/ATAACAGCGCGTAGGGCCACGCTGCCGCTGCTCGGCCCACACTCTATTTGACCGGGATGTCGGACCAGCTGGTCATTCCTTACCATCCCACACTCTATTTGACCGTCTCCGGTCAGCGGGCAGGCGAGCCCTACGCGCTGTTAT/GGCAGCCGCGTGTGCCGCTGGCTCGGCCACACTCTATTTGACCGTCCGGTGCGAGCTGCGCGGCGAGCCCTA; conditions: 22 °C, 1 μM RNA strands, 2 μM each inhibitor, 5 μM dye
[2] = tested on: AND gate + AND_input A (1-0) (DNA:RNA, aptamer) GGUUUCAACCUUUGCAAACAUGCUUUGGAUGGUAACGAAUGACCAGCCCGAAAGGGCUGGUCCGACAUCCUUUGGGAAAUCCUUUGGGUGCCGUUU/GTAAGCTTTGGTTGA …; conditions: 100 mM NaCl, 10 mM MgCl2; 50 mM Tris pH 8.0, 22 °C; 2 μM dye, 2 μM input; output OFF (<60% normalized)
[3] = tested on: AND gate + AND_input A + AND_input B (1-1) (DNA:RNA, aptamer) GGUUUCAACCUUUGCAAACAUGCUUUGGAUGGUAACGAAUGACCAGCCCGAAAGGGCUGGUCCGACAUCCUUUGGGAAAUCCUUUGGGUGCCGUUU/GTAAGCTTTGGTTGA/AAACAGCGTCCAGAGGAT; conditions: 100 mM NaCl, 10 mM MgCl2; 50 mM Tris pH 8.0, 22 °C; 1 μM RNA, 2 μM dye, 2 μM each input; output ON
[4] = tested on: RNA AND/OR gate (no inputs, 0-0) (RNA, aptamer) GGUUUCAACCUUUGCAAACAUGCUUUGGAUGGUAACGAAUGACCAGCCCGAAAGGGCUGGUCCGACAUCCUUUGGGAAAUCCUUUGGGUGCCGUUU; conditions: 100 mM NaCl, 10 mM MgCl2; 50 mM Tris pH 8.0, 22 °C; 1 μM RNA, 2 μM dye; output OFF (<60% normalized)
[5] = tested on: NAND gate + NAND input B (0-1) (DNA:RNA, aptamer) GGUUUGCAAACAUGCUUUGGAUGGUAACGAAUGACCAGCCCGAAAGGGCUGGUCCGACAUCCUUUGGGAAAUCCUUU/TTGATTTCCCTTTGGT; conditions: 100 mM NaCl, 10 mM MgCl2; 50 mM Tris pH 8.0, 22 °C; 2 μM dye; fluorescence slightly higher than without input
[6] = tested on: NAND gate + NAND_input A + NAND input B (1-1) (DNA:RNA, aptamer) GGUUUGCAAACAUGCUUUGGAUGGUAACGAAUGACCAGCCCGAAAGGGCUGGUCCGACAUCCUUUGGGAAAUCCUUU/CTATAGCATGTTTGC/TTGATTTCCCTTTGGT; conditions: 100 mM NaCl, 10 mM MgCl2; 50 mM Tris pH 8.0, 22 °C; 2 μM dye; output OFF (<60% normalized)
[7] = tested on: RNA NAND/NOR gate (no inputs, 0-0) (RNA, aptamer) GGUUUGCAAACAUGCUUUGGAUGGUAACGAAUGACCAGCCCGAAAGGGCUGGUCCGACAUCCUUUGGGAAAUCCUUU; conditions: 100 mM NaCl, 10 mM MgCl2; 50 mM Tris pH 8.0, 22 °C; 1 μM RNA, 2 μM dye; output ON
[8] = tested on: OR gate + OR_input A (1-0) (DNA:RNA, aptamer) GGUUUCAACCUUUGCAAACAUGCUUUGGAUGGUAACGAAUGACCAGCCCGAAAGGGCUGGUCCGACAUCCUUUGGGAAAUCCUUUGGGUGCCGUUU/GCATGTTTGCAAAGGTTGAAA; conditions: 100 mM NaCl, 10 mM MgCl2; 50 mM Tris pH 8.0, 22 °C; 1 μM RNA, 2 μM dye, 2 μM each input; output ON
[9] = tested on: NOR gate + NOR_input A (1-0) (DNA:RNA, aptamer) GGUUUGCAAACAUGCUUUGGAUGGUAACGAAUGACCAGCCCGAAAGGGCUGGUCCGACAUCCUUUGGGAAAUCCUUU/CCATCCAAAGCATGTTTGCAAA; conditions: 100 mM NaCl, 10 mM MgCl2; 50 mM Tris pH 8.0, 22 °C; 1 μM RNA, 2 μM dye, 2 μM each input; output OFF
[10] = tested on: NAND gate + NAND_input A (1-0) (DNA:RNA, aptamer) GGUUUGCAAACAUGCUUUGGAUGGUAACGAAUGACCAGCCCGAAAGGGCUGGUCCGACAUCCUUUGGGAAAUCCUUU/CTATAGCATGTTTGC; conditions: 100 mM NaCl, 10 mM MgCl2; 50 mM Tris pH 8.0, 22 °C; 2 μM dye; fluorescence lower than without input
[11] = tested on: NOR gate + NOR_input B (0-1) (DNA:RNA, aptamer) GGUUUGCAAACAUGCUUUGGAUGGUAACGAAUGACCAGCCCGAAAGGGCUGGUCCGACAUCCUUUGGGAAAUCCUUU/AAAGGATTTCCCAAAGGATGTCGGACC; conditions: 100 mM NaCl, 10 mM MgCl2; 50 mM Tris pH 8.0, 22 °C; 1 μM RNA, 2 μM dye, 2 μM each input; output OFF
[12] = tested on: AND gate + AND_input B (0-1) (DNA:RNA, aptamer) GGUUUCAACCUUUGCAAACAUGCUUUGGAUGGUAACGAAUGACCAGCCCGAAAGGGCUGGUCCGACAUCCUUUGGGAAAUCCUUUGGGUGCCGUUU/AAACAGCGTCCAGAGGAT; conditions: 100 mM NaCl, 10 mM MgCl2; 50 mM Tris pH 8.0, 22 °C; 2 μM dye, 2 μM input; output OFF (<60% normalized)
[13] = tested on: NOR gate + NOR_input A + NOR_input B (1-1) (DNA:RNA, aptamer) GGUUUGCAAACAUGCUUUGGAUGGUAACGAAUGACCAGCCCGAAAGGGCUGGUCCGACAUCCUUUGGGAAAUCCUUU/CCATCCAAAGCATGTTTGCAAA/AAAGGATTTCCCAAAGGATGTCGGACC; conditions: 100 mM NaCl, 10 mM MgCl2; 50 mM Tris pH 8.0, 22 °C; 1 μM RNA, 2 μM dye, 2 μM each input; output OFF
[14] = tested on: OR gate + OR_input B (0-1) (DNA:RNA, aptamer) GGUUUCAACCUUUGCAAACAUGCUUUGGAUGGUAACGAAUGACCAGCCCGAAAGGGCUGGUCCGACAUCCUUUGGGAAAUCCUUUGGGUGCCGUUU/AAACGGCGTCCAAAGGATTTCCC; conditions: 100 mM NaCl, 10 mM MgCl2; 50 mM Tris pH 8.0, 22 °C; 1 μM RNA, 2 μM dye, 2 μM each input; output ON
[15] = tested on: OR gate + OR_input A + OR_input B (1-1) (DNA:RNA, aptamer) GGUUUCAACCUUUGCAAACAUGCUUUGGAUGGUAACGAAUGACCAGCCCGAAAGGGCUGGUCCGACAUCCUUUGGGAAAUCCUUUGGGUGCCGUUU/GCATGTTTGCAAAGGTTGAAA/AAACGGCGTCCAAAGGATTTCCC; conditions: 100 mM NaCl, 10 mM MgCl2; 50 mM Tris pH 8.0, 22 °C; 1 μM RNA, 2 μM dye, 2 μM each input; output ON

| binding ([1]; low fluorescence at 510 nm) | binding [2] | binding [3] | binding [4] | binding [5] | binding [6] | binding [7] | binding [8] | binding [9] | binding [10] | binding [11] | binding [12] | binding [13] | binding [14] | binding ([1]; low fluorescence at 650 nm) | binding [15] | Compound |
| --- | --- | --- | --- | --- | --- | --- | --- | --- | --- | --- | --- | --- | --- | --- | --- | --- |
| no | – | – | – | – | – | – | – | – | – | – | – | – | – | – | – | CC1=N/C(=C\c2cc(F)c(O)c(F)c2)C(=O)N1C |
| – | weak | yes | no | yes | weak | yes | yes | no | yes | no | weak | no | yes | no | yes | CN(C)c1ccc(C(=C2C=CC(=[N+](C)C)C=C2)c2ccccc2)cc1 |
